The results in this text go back to patent US20240138406A1, “ANTIMICROBIAL PEPTIDE SCYAMPCIN44-63 AND APPLICATION THEREOF” (Xiamen University, priority 2021, published 2024).

The subject of series [1] is Listeria monocytogenes CGMCC 1.10753. The following applies: CGMCC 1.10753, 24 h.
The subject of series [2] is Fusarium graminearum CGMCC 3.4521. The note with it: Filamentous fungi, incubated 24 hours.
Series [3] deals with Staphylococcus aureus CGMCC 1.2465. The following applies: CGMCC 1.2465, 24 h.
Series [4] concerns Shigella flexneri CGMCC 1.1868. The following applies: 24 h.
Series [5] relates to Acinetobacter baumannii QZ20141. The following applies: QZ20141, 24 h.
The subject of series [6] is Staphylococcus aureus QZ19131. The following applies: QZ19131, 24 h.
In series [7] the test system is Pseudomonas aeruginosa CGMCC 1.1785. The following applies: CGMCC 1.1785, 24 h.
The subject of series [8] is Cryptococcus neoformans CGMCC 2.1563. The following applies: CGMCC 2.1563, 24 h.
Series [9] concerns Enterococcus faecium CGMCC 1.131. The note with it: CGMCC 1.131, 24 h.
Series [10] has as its system Acinetobacter baumannii CGMCC 1.6769. The following applies: CGMCC 1.6769, 24 h.
The test system of series [11] is Fusarium solani CGMCC 3.584. The following applies: 24 h.
Series [12] deals with Candida albicans CGMCC 2.2411. The following applies: CGMCC 2.2411, 24 h.
The test system of series [13] is Klebsiella pneumoniae QZ18106. The following applies: QZ18106, 24 h.
Series [14] deals with Enterococcus faecium QZ18080. The following applies: QZ18080, 24 h.
Series [15] relates to Enterococcus faecalis QZ19138. The following applies: QZ19138, 24 h.
Series [16] concerns Bacillus cereus CGMCC 1.3760. The note with it: CGMCC 1.3760, 24 h.
In series [17] the test system is Pseudomonas aeruginosa QZ18071. The note with it: QZ18071, 24 h.
In the next series the test system is Escherichia coli QZ18109. The following applies: QZ18109, 24 h.
For series [18], the system named is Escherichia coli CGMCC 1.2389. The note with it: CGMCC 1.2389, 24 h.
For series [19], the system named is Human embryonic kidney 293T (HEK-293T) cells. Format: cell-based. On the procedure: (§1) IV. Cytotoxicity of the […]44-63 is measured and evaluated by using 3-(4,5-dimethylthiazol-2-yl)-5-(3-carboxymethoxyphenyl)-2-(4-sulfophenyl)-2H-tetrazolium (MTS) 1. Human embryonic kidney 293T (HEK-293T) cells and epithelioma papulosum […] (EPC) cells are selected to assess the cytotoxicity of the […]44-63. […] HEK-293T cells are incubated in a cell incubator with 5% CO2 at 37° C., and EPC cells are incubated in a cell incubator with 5% CO2 at 28° C. (2) 50 μL of medium is carefully sucked out, fresh media with or without different concentrations of the […]44-63 are respectively added to a corresponding well, put in a corresponding cell condition, and incubated for another 24 hours while leaving to stand. (3) 20 μL of an MTS-Phenazinemethosulfate (PMS) mixed solution is added and incubated for 4 hours, absorbance of each well is measured at OD492 nm in a microplate reader, and cell viabilities are calculated.

Series [20] relates to epithelioma papulosum cyprini (EPC) cells. The class given is cell-based. On the procedure: as §1

No end group written: not given here.

For “GKKKKRNMMKTKEPGIIFFF-NH2 [Scyampcin44-63]”, the MBC lay within 0 to 3 µM in series [1]; 3 to 6 µM in series [2]; 3 to 6 µM in series [3]; 0 to 3 µM in series [4]; 3 to 6 µM in series [5]; 3 to 6 µM in series [6]. Also, the MBC in series [7] fell in the range of 6 to 12 µM; in series [8], 0 to 3 µM; in series [9] it was 0 to 3 µM; in [10] it was 0 to 3 µM; in [11], 3 to 6 µM; in series [12], 3 to 6 µM. Moreover, the MBC in [13] was in the range of 3 to 6 µM; in [14] it was 0 to 3 µM; in [15], 3 to 6 µM; in series [16], 3 to 6 µM; in series [17], 6 to 12 µM; against Escherichia coli QZ18109 it was 0 to 3 µM. The substance also registered an MBC in series [18] of 0 to 3 µM. For the same substance, the “Cytotoxicity (cell viability, MTS)” value in [19] and in [20] was “no cytotoxicity” throughout.
